Results published in patent US8592408B2, “Fused aminodihydrothiazine derivatives” (Eisai R&D Management Co., Ltd., priority 2011, dated 2013).
Read-outs that look alike come from different tables or passages of the source. One block for each compound: values may come before it.

Columns and labels:
[1] = test system: Salmonella typhimurium tester strains TA98, TA100, TA1535 and TA1537 and Escherichia coli tester strain WP2 uv; assay: Ames test; type: cell-based; conditions: absence and presence of rat liver S9, up to highest dose tested 5000 ug/plate
Experimental: The title compound was subjected to an Ames test (Salmonella typhimurium tester strains TA98, TA100, TA1535 and TA1537 and Escherichia coli tester strain WP2 uv. Mutation Research 1975, 31, 347; Mutation Research 1976, 38, 3; Proc. Nat. Acad. Sci. USA 1976, 73, 950; Proc. Nat. Acad. Sci. USA 1975, 72, 5135) in the absence and presence of rat liver S9. The compound was negative up to the highest dose/concentration tested (5000 ug/plate).

[2] = target: T1, P-glycoprotein (MDR1-MDCK cells) (Homo sapiens, UniProt P08183); assay: MDR1-MDCK permeability (bi-directional) Pgp efflux assay; type: in vitro ADME; conditions: MDR1-MDCK, pH 7.4/pH 7.4, 10 μM, 60 min; ER=Papp(B-A)/Papp(A-B)
T1 construct: assay run at Cyprotex Discovery Ltd; host or cells: MDCK (canine kidney epithelial) cells stably transfected with MDR1
Experimental: (§1) Test compound permeability was assessed in duplicate.
(§2) Test and control compounds were quantified by LC-MS/MS cassette analysis using a 5-point calibration with appropriate dilution of the samples. Cyprotex generic analytical conditions were used. The starting concentration (C0) was determined from the dosing solution and the experimental recovery calculated from C0 and both apical and basolateral compartment concentrations.
(§3) Lucifer yellow permeation is low if monolayers have not been damaged.
(§4) Where dQ/dt is the rate of permeation of the drug across the cells, C0 is the donor compartment concentration at time zero and A is the area of the cell monolayer.

[3] = Rat in vivo CNS penetration (plasma, brain and CSF concentrations); conditions: 10 mg/kg p.o.; for Kp at 2 h / Kp at 4 h / Kp at 6 h / Kp at 8 h: male, Sprague Dawley, po, rat
Experimental: Rat In Vivo CNS Penetration
Male Sprague Dawley rats were acquired from Charles River UK Ltd. (Margate, UK) and housed according to UK Home Office guidelines. Drugs were made up to the appropriate concentrations in 0.5% methyl cellulose. Animals were dosed orally (2 mL/kg) by gavage at the doses outlined in Tables 2 to 4 below.
At the time points post-dosing, specified in Tables 2 to 4 below the animals were administered an i.p. injection of sodium pentobarbitone (approximately 330 mg/kg for terminal anaesthesia).
Using a guillotine, the animals were decapitated and trunk blood collected into 15 ml Falcon tubes containing 100 IU heparin. Blood was vortexed followed by centrifugation at 6000 rpm, 4° C. for 5 minutes. Plasma was collected for DMPK and ELISA assays and stored at −80° C. until use. Brains were dissected out and divided along the midline, weighed and stored at −80° C. until further use.
Method for Analysis of Plasma, Brain and CSF Samples
Test compound was prepared as a 1 mg free base/mL solution in DMSO, vortexed and sonicated for 5 min. The 1 mg/mL DMSO solution was diluted to 10 and 30 μg/mL acetonitrile stocks, by adding 10 μL to 990 μL acetonitrile and 30 μL to 970 μL acetonitrile, respectively. The 10 and 30 μg/mL acetonitrile stocks were then serially diluted 1:9 (v/v) (100 μL stock into 900 μL acetonitrile) to give the following solutions: 0.003, 0.01, 0.03, 0.1, 0.3, 1, 3, 10 and 30 μg/mL acetonitrile.
Control male Sprague Dawley rat plasma and the study plasma samples were stored at −80° C. until the day of analysis when they were thawed at room temperature. Control plasma was centrifuged (2,000 g for 10 min) and aliquoted (90 μL) into eppendorf tubes for preparation of standards and blank samples. Study samples were previously aliquoted (100 μL) into eppendorf tubes immediately following collection of the plasma.
Double blank and blank samples were prepared by adding 10 μL of acetonitrile to 90 μL of blank plasma.
Control male Sprague Dawley rat brain and the study brain samples were weighed after collection and stored at −80° C. until the day of analysis when they were thawed at room temperature. Once thawed brains were diluted with water (4 mL per gram of tissue) and homogenised using a mechanical homogeniser. An aliquot (100 μL) of each study sample was taken into Micronics tubes ready for analysis and sufficient aliquots (90 μL) of control brain homogenate prepared for preparation of standards and blanks.
Double blank and blank samples were prepared by adding 10 μL of acetonitrile to 90 μL of blank brain homogenate.
Each plasma and brain homogenate sample, standard and blank (100 μL) was extracted with an aliquot (300 μL) of acetonitrile (containing 0.1% formic acid and 100 ng/mL of an appropriate internal standard). Double blanks were extracted with an aliquot (300 μL) of acetonitrile containing 0.1% formic acid). All samples, standards and blanks were then vortex mixed and centrifuged (2000 g for 15 min). An aliquot (50 μL) of the resulting supernatant was then taken into a 2 mL 96-deep well plate and diluted with acetonitrile:water (50:50 v/v) (150 μL) ready for analysis by a specific LC-MS/MS method.
Control male Sprague Dawley rat CSF and the study CSF samples were stored at −80° C. until the day of analysis when they were thawed at room temperature. An aliquot (50 μL) of each study sample was taken into Micronics tubes ready for analysis and sufficient aliquots (45 μL) of control CSF prepared for preparation of standards and blanks.
Double blank and blank samples were prepared by adding 5 μL of acetonitrile to 45 μL of blank CSF.
Each CSF sample, standard and blank (50 μL) was extracted with an aliquot (150 μL) of acetonitrile (containing 0.1% formic acid and 100 ng/mL of an appropriate internal standard). Double blanks were extracted with an aliquot (150 μL) of acetonitrile containing 0.1% formic acid.

[4] = Plasma protein binding (PPB), rapid equilibrium dialysis; type: in vitro ADME; conditions: male, Sprague Dawley, rat, RED 6 h 37° C.
Experimental: (§5) Method For Determination of Plasma Protein Binding (PPB) and Brain Tissue Binding (BTB)
(§6) On the morning of dialysis, control male Sprague Dawley rat plasma and brain, previously stored at −80° C. were thawed at room temperature. Plasma was checked for pH and if necessary adjusted to 7.4 with 1M HCl. Plasma was then centrifuged (2000 g for 10 min) and the brains diluted with 2 mL of Phosphate Buffered Saline (pH 7.4) per gram of tissue and homogenised using a mechanical homogeniser.
(§7) The Rapid Equilibrium Dialysis (RED) plate (Thermo Scientific) was prepared in accordance with the manufacturers guidelines i.e. the base plate was soaked in 20% (v/v) ethanol for 10 min and then rinsed twice with deionised water before being allowed to dry. […] The plate was then covered with an adhesive and incubated in air at 37° C. for 6 h with 130 rpm agitation.
(§8) Following the 6 h incubation, the seal was removed and an aliquot (50 μL) taken from the PBS chambers and dispensed into Micronics tubes. […]
(§9) Samples were vortex mixed and an aliquot (300 μL) of acetonitrile containing 0.1% formic acid and 100 ng/mL of an appropriate internal standard added. Samples were then mixed and centrifuged (2000 g for 15 min) and an aliquot of the supernatant (100 μL) removed into a 96-deep well plate and diluted with an equal volume of water ready for analysis by LC-MS/MS.

[5] = Brain tissue binding (BTB), rapid equilibrium dialysis; type: in vitro ADME; conditions: rat brain homogenate, RED 6 h 37° C.
Experimental: as §5, §6, §7, §8, §9

[6] = Effects on QTc interval in anaesthetised guinea pigs; type: in vivo; conditions: anaesthetised guinea pig, i.v. infusion 2.0, 6.0, 20 mg/kg/10 min, up to the highest dose/concentration tested
Experimental: Assessment of Effects on QTc Interval in Guinea Pigs
Male Dunkin-Hartley guinea pigs were weighed and anaesthetised using 4% isoflurane in carbogen. […] Xylazine at 2 mg/kg i.m. was administered into the hind limb as a bradycardic agent to enable detection of QTc prolongation by the software.
The carotid artery and jugular vein were cannulated with lines containing heparinised saline and a 3-lead ECG connected and monitored using LabChart Pro software. Animals were allowed to stabilise for 30 minutes after the completion of the surgical procedure, before the initiation of an i.v. vehicle (5% DMSO/90% MilliQ/5% 0.1N HCl) infusion from time zero (infusion rate=0.2 ml/kg/min). At 10 mins, an arterial blood sample was collected for PK analysis (150u1; all collection syringes were heparinised). At 12 mins, drug infusion was started @ 2.0 mg/kg/10 min i.v. The dose was increased to 6.0 mg/kg/10 min, then 20 mg/kg/10 min i.v., with a 10 minutes infusion period and two minutes blood sampling at each dose. After the final dose, a blood sample was taken and a second vehicle infusion initiated. Eight minutes later a terminal blood sample was collected for plasma PK analysis and the animal killed by a Schedule 1 method.
QTc (Bazett's) changes were analysed using LabChart Pro software.

[7] = Effects on QTc interval in anaesthetised beagle dogs; type: in vivo; conditions: anaesthetised beagle dog, infusion 1, 3, 10 mg/kg/10 min, up to the highest dose/concentration tested
Experimental: Assessment of Effects on QTc Interval in Beagle Dogs
Male beagle dogs were weighed and injected with sodium thiopental for induction of anesthesia.
The carotid artery and saphenous vein were cannulated with lines containing heparinised saline and a LII ECG connected and monitored using polygraph system. Animals were allowed to stabilise for 30 minutes before the infusion of compound solution and the infusion via cannula was started from time zero with 1 mg/kg/10 min. The dose was increased to 3 mg/kg/10 min, then 10 mg/kg/10 min. An arterial blood sample was collected after every dosing for PK analysis.

[8] = test system: Aβ peptide production in rat primary neuronal culture; assay: Quantification of Aβ peptide in culture of neurons from rat fetus brain (Aβ ELISA); type: cell-based; conditions: Primary cortical neuron, Aβ species (ABx-40 1 day / ABx-42 3 days) not given
[9] = target: T2, P-glycoprotein (MDR1) (Homo sapiens, UniProt P08183); assay: MDR1-MDCK permeability (bi-directional) Pgp efflux assay; type: in vitro ADME; conditions: dog, MDCK-MDR1, pH 7.4; read-out: Pgp ER
T2 construct: assay run at Cyprotex Discovery Ltd; host or cells: MDCK (canine kidney epithelial) cells stably transfected with MDR1
Experimental: as §1, §2, §3, §4

[10] = target: BACE-1 (Homo sapiens, UniProt P56817); conditions: cited from earlier work
[11] = TASTPM mice, cited from earlier work; for brain concentration: oral dose of 250 mg/kg
[12] = test system: Aβ40; conditions: TASTPM mice, cited from earlier work
[13] = CSF / plasma (unbound), read-out: CSF:Plu
[14] = brain (total) / plasma (total), read-out: Brtot:Pltot
[15] = brain (unbound) / plasma (unbound), read-out: Bru:Plu

Sequence of BACE-1 (P56817 46-501, species assumed): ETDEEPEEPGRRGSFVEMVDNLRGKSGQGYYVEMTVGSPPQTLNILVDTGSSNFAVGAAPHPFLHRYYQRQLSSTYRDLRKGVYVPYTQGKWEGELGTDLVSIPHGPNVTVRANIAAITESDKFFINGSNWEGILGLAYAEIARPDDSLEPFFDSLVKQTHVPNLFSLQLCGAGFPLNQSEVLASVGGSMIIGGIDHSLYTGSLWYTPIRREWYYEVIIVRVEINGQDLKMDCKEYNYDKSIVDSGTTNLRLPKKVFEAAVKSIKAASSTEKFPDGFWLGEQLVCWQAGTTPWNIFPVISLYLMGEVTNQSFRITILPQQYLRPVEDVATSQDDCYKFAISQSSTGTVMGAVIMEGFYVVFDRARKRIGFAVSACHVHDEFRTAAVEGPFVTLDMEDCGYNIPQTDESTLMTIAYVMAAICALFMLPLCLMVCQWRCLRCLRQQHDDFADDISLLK
T1 sequence (P08183 whole entry): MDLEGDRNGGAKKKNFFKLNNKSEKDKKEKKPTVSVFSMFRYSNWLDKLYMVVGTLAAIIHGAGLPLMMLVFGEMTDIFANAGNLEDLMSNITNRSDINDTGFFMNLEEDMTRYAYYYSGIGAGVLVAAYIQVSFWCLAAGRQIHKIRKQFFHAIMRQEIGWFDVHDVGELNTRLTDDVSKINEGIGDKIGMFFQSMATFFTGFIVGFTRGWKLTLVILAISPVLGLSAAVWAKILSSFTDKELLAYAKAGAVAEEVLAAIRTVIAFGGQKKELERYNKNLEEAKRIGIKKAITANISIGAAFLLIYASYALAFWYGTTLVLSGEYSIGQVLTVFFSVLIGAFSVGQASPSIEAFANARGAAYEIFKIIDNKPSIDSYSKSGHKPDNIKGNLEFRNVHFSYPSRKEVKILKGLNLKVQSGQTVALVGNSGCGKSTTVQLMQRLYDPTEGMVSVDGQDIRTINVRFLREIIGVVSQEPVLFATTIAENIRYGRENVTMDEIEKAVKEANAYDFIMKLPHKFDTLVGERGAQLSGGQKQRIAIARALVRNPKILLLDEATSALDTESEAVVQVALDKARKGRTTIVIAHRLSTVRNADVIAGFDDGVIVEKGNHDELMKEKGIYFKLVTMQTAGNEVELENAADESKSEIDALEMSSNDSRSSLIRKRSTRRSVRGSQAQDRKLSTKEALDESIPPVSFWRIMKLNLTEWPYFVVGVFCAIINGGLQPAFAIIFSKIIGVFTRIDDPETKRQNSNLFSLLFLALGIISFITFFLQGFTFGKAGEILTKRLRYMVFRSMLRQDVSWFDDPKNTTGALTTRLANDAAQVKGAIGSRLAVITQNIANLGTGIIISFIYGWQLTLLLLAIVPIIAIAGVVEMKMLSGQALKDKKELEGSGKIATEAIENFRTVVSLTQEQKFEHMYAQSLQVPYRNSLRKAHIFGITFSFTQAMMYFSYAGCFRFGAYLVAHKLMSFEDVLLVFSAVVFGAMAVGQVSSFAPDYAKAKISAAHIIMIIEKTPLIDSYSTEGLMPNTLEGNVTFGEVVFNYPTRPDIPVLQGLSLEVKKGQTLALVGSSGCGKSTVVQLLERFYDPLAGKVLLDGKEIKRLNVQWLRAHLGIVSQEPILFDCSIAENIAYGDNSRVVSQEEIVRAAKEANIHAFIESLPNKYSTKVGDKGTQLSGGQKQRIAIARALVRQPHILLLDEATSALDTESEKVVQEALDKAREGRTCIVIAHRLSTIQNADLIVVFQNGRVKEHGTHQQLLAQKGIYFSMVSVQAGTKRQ
T2 sequence (P08183 whole entry): as above

Compound: NC1=N[C@@]2(c3cc(N)ccc3F)CO[C@H](C(F)(F)F)[C@H]2CS1 [1-(25), (4aS,5S,7aS)-7a-(5-amino-2-fluorophenyl)-5-(trifluoromethyl)-4a,5,7,7a-tetrahydro-4H-furo[3,4-d][1,3]thiazin-2-amine]
Ames test result [1]: negative

Pgp ER [2]: 1.7
Kp at 2 h [3, 13]: 0.5
Kp at 4 h [3, 13]: 0.6
Kp at 6 h [3, 13]: 0.5
Kp at 2 h [3, 14]: 3.3
Kp at 4 h [3, 14]: 3.9
Kp at 6 h [3, 14]: 3.7
Kp at 8 h ([3]; brain (total) / plasma (total), 8 h, read-out: Brtot:Pltot): 3.8
Kp at 2 h [3, 15]: 0.7
Kp at 4 h [3, 15]: 0.8
Kp at 6 h [3, 15]: 0.8
Kp at 8 h ([3]; brain (unbound) / plasma (unbound), 8 h, read-out: Bru:Plu): 0.8
[CSF] ([3]; rat CSF, 8 h): ^3n.q.
fraction unbound at 6 h, 1 μg/mL ([4]; pH 7.4, fraction unbound, rat plasma, mean of n = 3, read-out: Rat Plasma fu): 0.104
fraction unbound at 6 h, 1 μg/mL ([4]; pH 7.4, rat plasma, mean of n = 3, read-out: Rat PPB (%) (converted)): 0.104
fraction unbound at 6 h, 1 μg/mL ([5]; male, Sprague Dawley, pH 7.4, fraction unbound, mean of n = 3, read-out: Rat Brain fu): 0.022
Rat BTB (%) ([5]; 1 μg/mL, mean of n = 3): 97.8%
IC50 [8]: 6 nM
Compound: NC1=N[C@@]2(c3cc(NC(=O)c4cnc(CF)cn4)ccc3F)CO[C@H](C(F)(F)F)[C@H]2CS1 [Example 8, N-(3-((4aS,5S,7aS)-2-amino-5-(trifluoromethyl)-4a,5,7,7a-tetrahydro-4H-furo[3,4-d][1,3]thiazin-7a-yl)-4-fluorophenyl)-5-(fluoromethyl)pyrazine-2-carboxamide]
QTc (Bazett's) change [6]: unchanged
QTc change [7]: unchanged

efflux ratio at 60 min, 10 μM [9]: 1.7
IC50 [8]: 44 nM
Compound: COCc1cnc(C(=O)Nc2ccc(F)c([C@]34CO[C@H](C(F)(F)F)[C@H]3CSC(N)=N4)c2)cn1 [Example 13, N-(3-((4aS,5S,7aS)-2-amino-5-(trifluoromethyl)-4a,5,7,7a-tetrahydro-4H-furo[3,4-d][1,3]thiazin-7a-yl)-4-fluorophenyl)-5-(methoxymethyl)pyrazine-2-carboxamide]

Compound: CCNc1cc(C(=O)N[C@@H](Cc2ccccc2)[C@H](O)CNCc2cccc(C(F)(F)F)c2)c(F)c(N2CCCCS2(=O)=O)c1 [GSK188909]
IC50 [10]: 5 nM
increase in CNS penetration by co-administration of a Pgp inhibitor ([11]; 250 mg/kg oral, with vs without GF120918): ~9 fold
brain concentration ([11]; Pgp inhibitor GF120918 dosed 5 hours before): 5.43 µM
brain concentration ([11]; no Pgp inhibitor): 0.62 µM
effect on brain Aβ40 levels ([12]; 250 mg/kg oral dose, absence of a Pgp inhibitor): did not have any effect
reduction in brain Aβ40 levels relative to vehicle treated mice ([12]; 250 mg/kg oral, Pgp inhibitor co-administered 5 hours prior): 68%
